Reference: ChEMBL document CHEMBL1201862, “PubChem BioAssay data set” (2004)
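Step 1: Grow cells in 96-well plates. Step 2: Expose to compound for 48 hours at 5 concentrations. Step 3: Interpolate endpoints linearly; if unreached, use highest concentration. GI50 = concentration required for 50% inhibition of growth.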 The source made the active and inactive calls. No stated cut-off is given here; in the data, active = GI50 up to about 1.1 µM and inactive = higher.

What was measured:
Test in all cases: inhibition of tumour cell growth, NCI panel, 48 h
MDA-MB-231 = test system: MDA-MB-231
UO-31 = test system: UO-31
SNB-19 = test system: SNB-19
EKVX = test system: EKVX
MDA-MB-435 = test system: MDA-MB-435
786-0 = test system: 786-0
OVCAR-3 = test system: OVCAR-3
BT-549 = test system: BT-549
RPMI-8226 = test system: RPMI-8226
A549 = test system: A549
OVCAR-4 = test system: OVCAR-4
SN12C = test system: SN12C
T47D = test system: T47D
MCF7 = test system: MCF7
HOP-62 = test system: HOP-62
NCI-H226 = test system: NCI-H226
SR = test system: SR
HL-60 = test system: HL-60
CAKI-1 = test system: CAKI-1
MDA-N = test system: MDA-N

Row | Structure (SMILES) | GI50 (MDA-MB-231) | GI50 (UO-31) | GI50 (SNB-19) | GI50 (EKVX) | GI50 (MDA-MB-435) | GI50 (786-0) | GI50 (OVCAR-3) | GI50 (BT-549) | GI50 (RPMI-8226) | GI50 (A549) | GI50 (OVCAR-4) | GI50 (SN12C) | GI50 (T47D) | GI50 (MCF7) | GI50 (HOP-62) | GI50 (NCI-H226) | GI50 (SR) | GI50 (HL-60) | GI50 (CAKI-1) | GI50 (MDA-N)
1 | CN(Cc1cc(Cl)cc(Cl)c1)CC(C(=O)c1ccccc1)c1ccccc1 (configuration not stated) | 6.81 µM (inactive) | 6.46 µM (inactive) | 14.4 µM (inactive) | 16.7 µM (inactive) | 3.61 µM (inactive) | 2.49 µM (inactive) | 0.605 µM (active) | 3.06 µM (inactive) | 0.1 µM (active) | 23.3 µM (inactive) | 2.07 µM (inactive) | 4.67 µM (inactive) | 2.02 µM (inactive) | 3.73 µM (inactive) | 24.8 µM (inactive) | 5.5 µM (inactive) | 0.473 µM (active) | 1.65 µM (inactive) | 1.03 µM (active) | –
2 | C=CCC(SC)C1=C(C)C(=O)c2ccccc21 (configuration not stated) | > 10 µM (inactive) | > 10 µM (inactive) | > 10 µM (inactive) | > 10 µM (inactive) | > 10 µM (inactive) | > 10 µM (inactive) | > 10 µM (inactive) | > 10 µM (inactive) | > 10 µM (inactive) | > 10 µM (inactive) | – | > 10 µM (inactive) | > 10 µM (inactive) | > 10 µM (inactive) | > 10 µM (inactive) | > 10 µM (inactive) | > 10 µM (inactive) | – | – | > 10 µM (inactive)
3 | O=C(OCC(Cl)(Cl)Cl)N1CC[C@@H](C2CCCCC2)C1 | 43.3 µM (inactive) | 20.7 µM (inactive) | 19.7 µM (inactive) | 23.1 µM (inactive) | < 0.01 µM (active) | 20.6 µM (inactive) | 18.1 µM (inactive) | 38.2 µM (inactive) | – | 27.3 µM (inactive) | 18.6 µM (inactive) | 29.3 µM (inactive) | 32.7 µM (inactive) | 22.1 µM (inactive) | 20.4 µM (inactive) | – | 32.2 µM (inactive) | – | 27 µM (inactive) | 31 µM (inactive)
4 | Cc1cc2c(c(/C=N/Cc3ccccc3)c1)OC1(C=C2)Oc2ccccc2C(=O)N1C (configuration not stated) | 27.5 µM (inactive) | 14 µM (inactive) | 31.6 µM (inactive) | 15.3 µM (inactive) | 28.7 µM (inactive) | 29.4 µM (inactive) | 37.4 µM (inactive) | 23.5 µM (inactive) | 12.1 µM (inactive) | 29.5 µM (inactive) | 29.2 µM (inactive) | 27.7 µM (inactive) | 10.4 µM (inactive) | 28.9 µM (inactive) | 31.6 µM (inactive) | 16 µM (inactive) | 3.54 µM (inactive) | 21 µM (inactive) | 16.6 µM (inactive) | –
5 | N#Cc1c(-c2ccccc2)c(/C=N/c2cccc(C(F)(F)F)c2)c(=O)n2c1[nH]c1ccccc12 | 42.3 µM (inactive) | 7.62 µM (inactive) | 30.5 µM (inactive) | 19.1 µM (inactive) | 39.5 µM (inactive) | 36.1 µM (inactive) | – | 48 µM (inactive) | 6.35 µM (inactive) | 23.6 µM (inactive) | 51.1 µM (inactive) | 17.4 µM (inactive) | 35.2 µM (inactive) | 35.6 µM (inactive) | 30.5 µM (inactive) | 26.7 µM (inactive) | – | – | 2.07 µM (inactive) | 28 µM (inactive)
6 | O=c1cc(NNc2ccccc2F)[nH]c(=O)[nH]1 | 16.3 µM (inactive) | 12.2 µM (inactive) | > 100 µM (inactive) | – | – | 15.3 µM (inactive) | 17.7 µM (inactive) | 17.5 µM (inactive) | 17.8 µM (inactive) | 55 µM (inactive) | 17.7 µM (inactive) | – | 0.679 µM (active) | 6.61 µM (inactive) | – | 21.2 µM (inactive) | 1.35 µM (inactive) | 11.9 µM (inactive) | 13 µM (inactive) | 18.5 µM (inactive)
7 | COc1ccccc1N1C(=O)CSC1c1c[nH]c2ccccc12 (configuration not stated) | 3.69 µM (inactive) | 58.1 µM (inactive) | > 100 µM (inactive) | > 100 µM (inactive) | > 100 µM (inactive) | > 100 µM (inactive) | > 100 µM (inactive) | > 100 µM (inactive) | > 100 µM (inactive) | > 100 µM (inactive) | > 100 µM (inactive) | > 100 µM (inactive) | > 100 µM (inactive) | > 100 µM (inactive) | > 100 µM (inactive) | > 100 µM (inactive) | – | > 100 µM (inactive) | – | > 100 µM (inactive)
8 | C/C=N\n1c(C)n[nH]c1=O | – | > 100 µM (inactive) | > 100 µM (inactive) | > 100 µM (inactive) | > 100 µM (inactive) | > 100 µM (inactive) | > 100 µM (inactive) | > 100 µM (inactive) | > 100 µM (inactive) | > 100 µM (inactive) | > 100 µM (inactive) | > 100 µM (inactive) | > 100 µM (inactive) | > 100 µM (inactive) | > 100 µM (inactive) | > 100 µM (inactive) | > 100 µM (inactive) | > 100 µM (inactive) | > 100 µM (inactive) | > 100 µM (inactive)
9 | COc1ccc2c3c1OC1c4[nH]c5ccccc5c4CC4(O)C(C2)N(C)CCC314 (configuration not stated) | 25.5 µM (inactive) | 13.6 µM (inactive) | 32.4 µM (inactive) | 51.9 µM (inactive) | 18.1 µM (inactive) | 18.7 µM (inactive) | 42.3 µM (inactive) | 30.8 µM (inactive) | 19.3 µM (inactive) | 59.2 µM (inactive) | 44.3 µM (inactive) | 56.6 µM (inactive) | 20.8 µM (inactive) | 21.8 µM (inactive) | 40.3 µM (inactive) | – | 15.2 µM (inactive) | – | 35.3 µM (inactive) | 17.3 µM (inactive)
10 | COc1cccc(C23CCCC(C2)N(C)CC3OC(=O)c2ccccc2)c1OC (configuration not stated) | – | > 100 µM (inactive) | 35.6 µM (inactive) | 24.5 µM (inactive) | 18 µM (inactive) | 32.7 µM (inactive) | 24.8 µM (inactive) | 14.5 µM (inactive) | 18.6 µM (inactive) | 41 µM (inactive) | 24 µM (inactive) | – | 20.3 µM (inactive) | 27.4 µM (inactive) | 31.3 µM (inactive) | – | 16.2 µM (inactive) | 10.2 µM (inactive) | 42.4 µM (inactive) | 16 µM (inactive)
11 | COC(=O)[C@H]1NC(=O)CCSSC1(C)C | > 100 µM (inactive) | > 100 µM (inactive) | > 100 µM (inactive) | > 100 µM (inactive) | > 100 µM (inactive) | > 100 µM (inactive) | > 100 µM (inactive) | > 100 µM (inactive) | > 100 µM (inactive) | > 100 µM (inactive) | > 100 µM (inactive) | > 100 µM (inactive) | > 100 µM (inactive) | > 100 µM (inactive) | > 100 µM (inactive) | > 100 µM (inactive) | – | > 100 µM (inactive) | > 100 µM (inactive) | –
12 | COC(=O)[C@H](Cc1ccccc1)NC(=O)c1ccc(CNC(=O)/C=C/c2ccc(-c3ccccc3)cc2)cc1 | 22.1 µM (inactive) | > 100 µM (inactive) | 12.6 µM (inactive) | > 100 µM (inactive) | > 100 µM (inactive) | 3.56 µM (inactive) | > 100 µM (inactive) | 24.9 µM (inactive) | > 100 µM (inactive) | > 100 µM (inactive) | > 100 µM (inactive) | > 100 µM (inactive) | > 100 µM (inactive) | > 100 µM (inactive) | 15.6 µM (inactive) | > 100 µM (inactive) | – | 25.9 µM (inactive) | 65 µM (inactive) | > 100 µM (inactive)
13 | Cc1ccc(NC2=CC(=O)C(NO)c3ccccc32)cc1 (configuration not stated) | 2.21 µM (inactive) | 2.82 µM (inactive) | 3.18 µM (inactive) | 2.15 µM (inactive) | 1.89 µM (inactive) | 5.16 µM (inactive) | 0.61 µM (active) | 3.66 µM (inactive) | – | 3.09 µM (inactive) | 2.99 µM (inactive) | 3.36 µM (inactive) | 2.74 µM (inactive) | 2.66 µM (inactive) | 3.39 µM (inactive) | 19.9 µM (inactive) | – | 2 µM (inactive) | 2.5 µM (inactive) | 2.61 µM (inactive)
14 | CC(C)CC(NP(=O)(O)OC1OC(C)C(O)C(O)C1O)C(=O)NC(Cc1c[nH]c2ccccc12)C(=O)O (configuration not stated) | > 100 µM (inactive) | > 100 µM (inactive) | > 100 µM (inactive) | > 100 µM (inactive) | > 100 µM (inactive) | > 100 µM (inactive) | > 100 µM (inactive) | > 100 µM (inactive) | > 100 µM (inactive) | > 100 µM (inactive) | > 100 µM (inactive) | > 100 µM (inactive) | > 100 µM (inactive) | > 100 µM (inactive) | > 100 µM (inactive) | > 100 µM (inactive) | – | – | > 100 µM (inactive) | > 100 µM (inactive)
15 | O=S(=O)(O)c1cc(Nc2ccnc3ccccc23)c2c(S(=O)(=O)O)cc(S(=O)(=O)O)cc2c1 | > 100 µM (inactive) | > 100 µM (inactive) | – | > 100 µM (inactive) | > 100 µM (inactive) | > 100 µM (inactive) | > 100 µM (inactive) | > 100 µM (inactive) | > 100 µM (inactive) | > 100 µM (inactive) | > 100 µM (inactive) | > 100 µM (inactive) | > 100 µM (inactive) | > 100 µM (inactive) | > 100 µM (inactive) | > 100 µM (inactive) | – | – | > 100 µM (inactive) | > 100 µM (inactive)
